Test results reported in the supplement of paper PMC10307832.

Tests used:
Test in all cases: relative viability (nuclei count vs DMSO), 5 days (fraction); higher = more cells survive
[1] = compound: COc1cc2c(Oc3ccc4[nH]c(C)cc4c3F)ncnc2cc1OCCCN1CCCC1 [Cediranib]
Method in brief: (§1)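 Five library-drug doses spaced by √10 were pinned onto vehicle-anchored 1536-well plates of lung cancer cell lines that had been kept overnight at 37 °C. Cells went 5 days without medium change, then were fixed, permeabilised and Hoechst-stained together, imaged at 4× and counted by MetaXpress. Viability is the ratio of treated-well to vehicle-well nuclei, taken as a median over plates. Plates required control CV below 25% and at least one doubling.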

[2] = compound: O=C(C[C@H]1NCCC[C@@H]1O)Cn1cnc2cc(Br)c(Cl)cc2c1=O (racemic) [Halofuginone]
Method in brief: as §1

[3] = compound: Nc1ncn([C@H]2C[C@H](O)[C@@H](CO)O2)c(=O)n1 [Decitabine]
Method in brief: as §1

Cell Line | relative viability ([1]; 0.04 µM) | relative viability ([1]; 0.1265 µM) | relative viability ([1]; 0.4 µM) | relative viability ([1]; 1.265 µM) | relative viability ([1]; 4 µM) | relative viability ([2]; 0.001 µM) | relative viability ([2]; 0.003162 µM) | relative viability ([2]; 0.01 µM) | relative viability ([2]; 0.03162 µM) | relative viability ([2]; 0.1 µM) | relative viability ([3]; 0.04 µM) | relative viability ([3]; 0.1265 µM) | relative viability ([3]; 0.4 µM) | relative viability ([3]; 1.265 µM) | relative viability ([3]; 2 µM, anchor plate) | relative viability ([3]; 4 µM)
NCI-H1355 | 0.944 | 1.04 | 0.898 | 0.944 | 1.06 | 0.989 | 1.02 | 0.94 | 0.941 | 0.899 | 0.768 | 0.643 | 0.42 | 0.338 | 0.362 | 0.278
NCI-H1395 | 0.885 | 0.832 | 0.887 | 0.884 | 0.993 | 0.984 | 0.872 | 0.809 | 0.868 | 0.768 | 0.627 | 0.671 | 0.729 | 0.508 | 0.744 | 0.528
NCI-H1437 | 1.08 | 0.969 | 0.998 | 0.972 | 1.06 | 0.976 | 1.02 | 1.01 | 0.984 | 0.845 | 0.744 | 0.73 | 0.542 | 0.424 | 0.557 | 0.425
NCI-H1563 | 0.97 | 1.39 | 1.03 | 0.961 | 1.13 | 1.02 | 1.06 | 0.885 | 0.664 | 0.486 | 1.07 | 1.04 | 1.43 | 0.986 |  | 1.03
NCI-H1623 | 1 | 0.599 | 0.879 | 1.04 | 1.07 | 0.947 | 0.873 | 0.966 | 1.07 | 0.875 | 0.864 | 0.749 | 0.664 | 0.52 |  | 0.516
NCI-H1648 | 0.627 | 0.423 | 0.71 | 0.773 | 0.791 | 1.12 | 0.809 | 1.06 | 0.951 | 1.13 | 0.82 | 0.733 | 0.474 | 0.387 | 0.509 | 0.366
NCI-H1650 | 1 | 0.962 | 0.833 | 0.8 | 0.822 | 1 | 1.01 | 0.883 | 0.811 | 0.19 | 0.599 | 0.657 | 0.507 | 0.346 | 0.422 | 0.338
NCI-H1651 | 0.977 | 0.963 | 0.96 | 0.951 | 0.999 | 0.983 | 1.14 | 0.966 | 0.934 | 0.735 | 0.954 | 1.01 | 0.961 | 0.799 | 0.64 | 0.767
NCI-H1666 | 1.02 | 1.18 | 0.989 | 1.01 | 1.02 | 0.993 | 0.936 | 0.991 | 1.06 | 0.991 | 0.938 | 0.9 | 0.866 | 0.827 | 0.764 | 0.851
NCI-H1703 | 0.819 | 0.677 | 0.471 | 0.363 | 0.393 | 0.931 | 0.994 | 0.886 | 0.668 | 0.519 | 0.772 | 0.669 | 0.288 | 0.332 |  | 0.246
NCI-H1734 | 0.897 | 0.951 | 0.96 | 0.821 | 1.09 | 1 | 1.06 | 0.985 | 0.984 | 0.751 | 0.804 | 0.829 | 0.69 | 0.498 | 0.517 | 0.363
NCI-H1755 | 1.1 | 0.861 | 0.954 | 1.05 | 1.01 | 1.02 | 1.04 | 1.01 | 1.01 | 0.978 | 0.95 | 0.949 | 0.848 | 0.598 | 0.717 | 0.515
NCI-H1792 | 0.862 | 0.846 | 0.84 | 0.931 | 0.795 | 0.923 | 0.897 | 0.902 | 0.913 | 0.633 | 0.802 | 0.857 | 0.889 | 0.534 | 0.526 | 0.507
NCI-H1793 | 0.786 | 0.891 | 0.704 |  | 0.978 | 1.01 | 0.811 | 0.904 | 1.04 | 0.557 | 0.715 | 0.756 | 0.707 | 0.498 | 0.547 | 0.398
NCI-H1915 | 0.969 | 0.832 | 0.96 | 1.04 | 0.996 | 0.957 | 1.13 | 0.959 | 0.998 | 0.943 | 0.502 | 0.421 | 0.329 | 0.26 | 0.265 | 0.292
NCI-H1944 | 0.93 | 0.955 | 0.918 | 0.883 | 0.936 | 0.962 | 0.951 | 0.918 | 0.963 | 0.922 | 0.9 | 0.869 | 0.541 | 0.381 | 0.429 | 0.441
NCI-H1975 | 0.974 | 0.983 | 0.914 | 0.956 | 0.939 | 1.05 | 0.943 | 0.953 | 0.692 | 0.442 | 0.594 | 0.526 | 0.372 | 0.352 | 0.394 | 0.358
NCI-H1993 | 0.73 | 0.878 | 0.857 | 0.726 | 0.87 | 1.23 | 0.978 | 0.893 | 1.11 | 0.749 | 0.863 | 0.844 | 0.929 | 0.755 | 0.596 | 0.757

Cell Line | relative viability ([1]; 0.04 µM) | relative viability ([1]; 0.1265 µM) | relative viability ([1]; 0.4 µM) | relative viability ([1]; 1.265 µM) | relative viability ([1]; 4 µM) | relative viability ([2]; 0.001 µM) | relative viability ([2]; 0.003162 µM) | relative viability ([2]; 0.01 µM) | relative viability ([2]; 0.03162 µM) | relative viability ([2]; 0.1 µM) | relative viability ([3]; 0.04 µM) | relative viability ([3]; 0.1265 µM) | relative viability ([3]; 0.4 µM) | relative viability ([3]; 1.265 µM) | relative viability ([3]; 2 µM, anchor plate) | relative viability ([3]; 4 µM)
NCI-H2009 | 1.01 | 0.958 | 0.984 | 0.988 | 1.1 | 1.04 | 1.18 | 0.948 | 0.883 | 0.597 | 0.837 | 0.706 | 0.504 | 0.349 | 0.387 | 0.343
NCI-H2023 | 1 | 1.02 | 0.902 | 0.878 | 1.19 | 0.98 | 1.05 | 0.931 | 0.516 | 0.082 | 0.678 | 0.516 | 0.249 | 0.206 | 0.227 | 0.172
NCI-H2085 | 1 | 1.08 | 0.946 | 0.99 | 0.97 | 1.03 | 1.07 | 0.989 | 1.04 | 0.935 | 0.812 | 0.768 | 0.65 | 0.528 | 0.559 | 0.528
NCI-H2087 | 1.09 | 1.18 | 0.776 | 1.14 | 1.27 | 1.09 | 1.21 | 0.975 | 0.886 | 0.836 | 0.574 | 0.567 | 0.561 | 0.296 | 0.294 | 0.367
NCI-H2126 | 0.971 | 0.987 | 0.955 | 0.809 | 0.957 | 1.02 | 0.992 | 0.949 | 0.968 | 0.88 | 0.906 | 0.958 | 0.709 | 0.633 | 0.573 | 0.582
NCI-H2170 | 1 | 0.764 | 0.983 | 0.828 | 1.03 | 0.988 | 1.05 | 0.917 | 0.982 | 0.991 | 0.839 | 0.746 | 0.685 | 0.475 | 0.471 | 0.473
NCI-H2228 | 1.18 | 1.08 | 0.763 | 1.06 | 1.13 | 0.966 | 0.995 | 0.981 | 0.642 | 0.194 | 0.665 | 0.539 | 0.426 | 0.283 |  | 0.275
NCI-H2342 | 1 | 1.1 | 0.899 | 0.746 | 1.07 | 1.07 | 0.956 | 0.961 | 0.963 | 0.95 | 0.977 | 1.05 | 0.97 | 0.671 | 0.745 | 0.645
NCI-H2347 | 1.02 | 0.84 | 0.983 | 1.02 | 1.11 | 1.08 | 1.01 | 1.02 | 1.02 | 0.886 | 0.885 | 0.887 | 0.697 | 0.6 | 0.587 | 0.66
NCI-H2405 | 0.999 | 0.914 | 0.994 | 1 | 1.02 | 1.16 | 1.03 | 1.01 | 0.96 | 0.876 | 0.898 | 0.903 | 0.758 | 0.596 | 0.745 | 0.49
NCI-H3122 | 1.09 | 0.765 | 0.977 | 1 | 1.01 | 1 | 0.984 | 0.968 | 0.941 | 0.95 | 0.964 | 0.964 | 0.624 | 0.473 | 0.471 | 0.647
PC-3 [JPC-3] | 0.921 | 0.959 | 0.933 | 1.09 | 0.973 | 1.06 | 1.04 | 1.01 | 1.09 | 0.982 |  | 0.85 | 0.537 | 0.611 | 0.847 | 0.627
PC-14 | 1.06 | 1.08 | 0.959 | 0.931 | 0.998 | 1.02 | 1 | 0.93 | 0.639 | 0.348 | 0.393 | 0.449 | 0.156 | 0.149 | 0.218 | 0.163
RERF-LC-KJ | 1.01 | 0.862 | 0.946 | 0.963 | 1.05 | 1.08 | 1.07 | 0.951 | 0.966 | 0.912 | 0.951 | 0.967 | 0.561 | 0.688 | 0.728 | 0.642
SK-LU-1 | 1.12 | 1.02 | 0.957 | 0.924 | 1.11 | 1.09 | 1.05 | 1.04 | 1.05 | 0.588 | 0.788 | 0.703 | 0.46 | 0.482 | 0.631 | 0.411
SK-MES-1 | 1.06 | 1.12 | 0.961 | 0.967 | 1.09 | 1.04 | 1.05 | 0.978 | 0.827 | 0.271 | 0.827 | 0.707 | 0.461 | 0.339 | 0.378 | 0.305
SW 900 | 0.811 | 0.774 | 0.737 | 0.835 | 0.952 | 0.911 | 0.888 | 0.664 | 1.02 | 0.569 | 0.465 | 0.477 | 0.298 | 0.25 | 0.433 | 0.265
SW 1573 | 1.01 | 0.974 | 0.969 | 0.828 | 0.927 | 1.08 | 1.06 | 0.908 | 0.692 | 0.278 | 0.815 | 0.944 | 0.732 | 0.486 | 0.504 | 0.379
